Data as given in PubChem BioAssay AID256 (DTP/NCI, 2004).
Inconclusive results and toxic doses are left out. The calls were made as follows: active = survival T/C of 150% or more; inactive = T/C below 125% in these data.

Test system: CD2F1 mice, L1210 leukemia ip, survival T/C
Assay: NCI In Vivo Anticancer Drug Screen. Data for tumor model L1210 Leukemia (intraperitoneal) in CD2F1 (CDF1) mice
Settings: higher = longer survival
Method in brief: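 Implant tumor; dose compound or vehicle; measure endpoint in both groups; report treated divided by control.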

[1] = endpoint: mean survival time, dose: 100.0 mg/kg/injection, schedule: Q04DX003 (ip), vehicle: saline with Tween-80
[2] = endpoint: mean survival time, dose: 200.0 mg/kg/injection, schedule: Q04DX003 (ip), vehicle: saline with Tween-80
[3] = endpoint: mean survival time, dose: 400.0 mg/kg/injection, schedule: Q04DX003 (ip), vehicle: saline with Tween-80
[4] = endpoint: mean survival time, dose: 100.0 mg/kg/injection, schedule: Q01DX001 (ip), vehicle: saline
[5] = endpoint: mean survival time, dose: 200.0 mg/kg/injection, schedule: Q01DX001 (ip), vehicle: saline
[6] = endpoint: mean survival time, dose: 400.0 mg/kg/injection, schedule: Q01DX001 (ip), vehicle: saline
[7] = endpoint: mean survival time, dose: 100.0 mg/kg/injection, schedule: Q01DX001 (ip), vehicle: saline with Tween-80
[8] = endpoint: mean survival time, dose: 100.0 mg/kg/injection, schedule: Q01DX009 (ip), vehicle: saline with Tween-80
[9] = endpoint: mean survival time, dose: 200.0 mg/kg/injection, schedule: Q01DX001 (ip), vehicle: saline with Tween-80
[10] = endpoint: mean survival time, dose: 200.0 mg/kg/injection, schedule: Q01DX009 (ip), vehicle: saline with Tween-80
[11] = endpoint: mean survival time, dose: 400.0 mg/kg/injection, schedule: Q01DX001 (ip), vehicle: saline with Tween-80
[12] = endpoint: mean survival time, dose: 400.0 mg/kg/injection, schedule: Q01DX009 (ip), vehicle: saline with Tween-80
[13] = endpoint: mean survival time, dose: 12.5 mg/kg/injection, schedule: Q01DX005 (ip), vehicle: other
[14] = endpoint: mean survival time, dose: 25.0 mg/kg/injection, schedule: Q01DX005 (ip), vehicle: other
[15] = endpoint: mean survival time, dose: 50.0 mg/kg/injection, schedule: Q01DX005 (ip), vehicle: other
[16] = endpoint: mean survival time, dose: 100.0 mg/kg/injection, schedule: Q01DX005 (ip), vehicle: other

Measured: T/C

CC(/C=C/C1OC(=O)C=CC1C)=C\C(C)C/C=C/C(C)=C/C(C)C(=O)C(C)C(O)C(C)C/C(C)=C/C(=O)O (stereo not drawn)
inactive: endpoint: median survival time, dose: 9.0 micrograms/kg/injection, schedule: Q01DX009 (ip), vehicle: saline + alcohol 106 % of control | endpoint: median survival time, dose: 15.0 micrograms/kg/injection, schedule: Q01DX009 (ip), vehicle: saline + alcohol 119 % of control | endpoint: median survival time, dose: 18.0 micrograms/kg/injection, schedule: Q01DX005 (ip), vehicle: alcohol 110 % of control | endpoint: median survival time, dose: 18.0 micrograms/kg/injection, schedule: Q01DX005 (ip), vehicle: saline + alcohol 106 % of control | endpoint: median survival time, dose: 25.0 micrograms/kg/injection, schedule: Q01DX009 (ip), vehicle: saline + alcohol 117 % of control | endpoint: median survival time, dose: 30.0 micrograms/kg/injection, schedule: Q01DX005 (ip), vehicle: alcohol 110 % of control | endpoint: median survival time, dose: 30.0 micrograms/kg/injection, schedule: Q01DX005 (ip), vehicle: saline + alcohol 107 % of control | endpoint: median survival time, dose: 50.0 micrograms/kg/injection, schedule: Q01DX005 (ip), vehicle: alcohol 115 % of control | endpoint: median survival time, dose: 50.0 micrograms/kg/injection, schedule: Q01DX005 (ip), vehicle: saline + alcohol 108 % of control | endpoint: median survival time, dose: 83.33 micrograms/kg/injection, schedule: Q01DX005 (ip), vehicle: alcohol 115 % of control | endpoint: median survival time, dose: 83.33 micrograms/kg/injection, schedule: Q01DX005 (ip), vehicle: saline + alcohol 116 % of control | endpoint: median survival time, dose: 138.89 micrograms/kg/injection, schedule: Q01DX005 (ip), vehicle: alcohol 122 % of control | endpoint: median survival time, dose: 138.89 micrograms/kg/injection, schedule: Q01DX005 (ip), vehicle: saline + alcohol 111 % of control

CCCCCCCCC(=O)c1ccc(N=Nc2ccc(OCC)cc2)cc1
inactive: [1] 94 % of control | [2] 91 % of control | [3] 89 % of control

CC(C)(C)OC(=O)NC(CSC(c1ccccc1)(c1ccccc1)c1ccccc1)C(=O)NCC(=O)O (stereo not drawn)
inactive: endpoint: mean survival time, dose: 75.0 mg/kg/injection, schedule: Q01DX001 (ip), vehicle: saline 96 % of control

CC12CCc3c(ccc4cc(O)ccc34)C1CCC2=O (stereo not drawn)
inactive: endpoint: mean survival time, dose: 100.0 mg/kg/injection, schedule: Q04DX003 (ip), vehicle: saline 100 % of control | endpoint: mean survival time, dose: 200.0 mg/kg/injection, schedule: Q04DX003 (ip), vehicle: saline 97 % of control | endpoint: mean survival time, dose: 400.0 mg/kg/injection, schedule: Q04DX003 (ip), vehicle: saline 97 % of control

CCOCCSc1ccccc1
inactive: [4] 104 % of control | [5] 102 % of control | [6] 102 % of control

COc1ccc2c(c1)OC(OC)(c1ccc(OC)c(OC)c1)C(O)(OC)C2=O (stereo not drawn)
inactive: endpoint: mean survival time, dose: 50.0 mg/kg/injection, schedule: Q01DX001 (ip), vehicle: saline 102 % of control | [4] 98 % of control | [5] 98 % of control | [6] 96 % of control

COC(=O)NC(/C=C/c1ccccc1)c1ccccc1 (stereo not drawn)
inactive: endpoint: mean survival time, dose: 100.0 mg/kg/injection, schedule: Q04DX003 (ip), vehicle: other 94 % of control | endpoint: mean survival time, dose: 200.0 mg/kg/injection, schedule: Q04DX003 (ip), vehicle: other 97 % of control | endpoint: mean survival time, dose: 400.0 mg/kg/injection, schedule: Q04DX003 (ip), vehicle: other 97 % of control

c1ccc(C(=NN=C(c2ccccc2)c2ccccc2)c2ccccc2)cc1
inactive: [1] 97 % of control | [2] 97 % of control | [3] 95 % of control | endpoint: mean survival time, dose: 800.0 mg/kg/injection, schedule: Q04DX003 (ip), vehicle: saline with Tween-80 92 % of control

COC(=O)c1ccc(I)c([N+](=O)[O-])c1
inactive: [7] 98 % of control | [8] 102 % of control | [9] 104 % of control | [10] 102 % of control | [11] 97 % of control | [12] 103 % of control

Cc1ccc(NC(=O)c2ccccc2C(=O)O)cc1C
inactive: [8] 98 % of control | [1] 100 % of control | [10] 95 % of control | [2] 101 % of control | [12] 94 % of control | [3] 103 % of control

Cc1nc(SCc2ccc(Cl)cc2)[nH]c(=O)c1CCO
inactive: [1] 92 % of control | [2] 96 % of control | [3] 94 % of control

CSc1c(N)nc(N)[nH]c1=O
inactive: endpoint: mean survival time, dose: 100.0 mg/kg/injection, schedule: Q01DX001 (ip), vehicle: alkali diluted with water 96 % of control | endpoint: mean survival time, dose: 200.0 mg/kg/injection, schedule: Q01DX001 (ip), vehicle: alkali diluted with water 94 % of control | endpoint: mean survival time, dose: 400.0 mg/kg/injection, schedule: Q01DX001 (ip), vehicle: alkali diluted with water 96 % of control

CC1(C)CCC2(C(=O)O)CCC3(C)C(=CCC4C5(C)CC(O)C(OC6OC(CO)C(O)C(O)C6O)C(C)(CO)C5C(O)CC43C)C2C1 (stereo not drawn)
inactive: endpoint: mean survival time, dose: 50.0 mg/kg/injection, schedule: Q04DX002 (ip), vehicle: saline with Tween-80 102 % of control

Cc1c(C)c(C)c(CCl)c(C)c1C
inactive: endpoint: mean survival time, dose: 50.0 mg/kg/injection, schedule: Q01DX009 (ip), vehicle: saline with Tween-80 103 % of control | [8] 103 % of control

CN=C1C=C(NC)C(F)(F)C1(F)F
inactive: endpoint: mean survival time, dose: 6.25 mg/kg/injection, schedule: Q04DX003 (ip), vehicle: saline 98 % of control | endpoint: mean survival time, dose: 12.5 mg/kg/injection, schedule: Q04DX003 (ip), vehicle: saline 101 % of control | endpoint: mean survival time, dose: 25.0 mg/kg/injection, schedule: Q04DX003 (ip), vehicle: saline 101 % of control

COc1cccc2c1C(=O)c1c(OC)c(CBr)cc(OC)c1C2=O
inactive: [13] 96 % of control | [14] 101 % of control | [15] 96 % of control | [16] 86 % of control

CNC(=O)c1nc2c(nc1NC)n(C)c(=O)n2C
inactive: [13] 93 % of control | [14] 90 % of control | [15] 95 % of control

CCCOC(=O)c1ccc(N)cc1
inactive: [7] 102 % of control | [9] 104 % of control | [11] 103 % of control

CN(C)c1nc(N)c2nonc2n1
inactive: [13] 97 % of control | [14] 97 % of control | [15] 92 % of control | [16] 97 % of control | endpoint: mean survival time, dose: 200.0 mg/kg/injection, schedule: Q01DX005 (ip), vehicle: other 95 % of control
